According to the NIST ThermoML archive (doi:10.1021/acs.jced.5b00105):

Test: xn = mol fraction of the nth substance listed
Conditions: for surface tension liquid-gas: Drop volume; for viscosity / mass density: 100 kPa, Liquid; for viscosity: Concentric cylinders viscometry; for mass density: Vibrating tube method

CCCCC1CCCCC1 [butylcyclohexane] + CC(C)CC(C)(C)C
Conditions	mass density [kg/m3]	surface tension liquid-gas [mN/m]	viscosity [mPa·s]
293.15 K, x1 = 0.0999	704.07	–	0.567
293.15 K, x1 = 0.1008	–	19.63	–
293.15 K, x1 = 0.2	–	20.32	–
293.15 K, x1 = 0.2002	715.88	–	0.623
293.15 K, x1 = 0.3001	727.35	21.02	0.679
293.15 K, x1 = 0.3996	738.44	–	0.744
293.15 K, x1 = 0.3999	–	21.75	–
293.15 K, x1 = 0.5004	–	22.42	–
293.15 K, x1 = 0.5005	749.38	–	0.816
293.15 K, x1 = 0.5999	–	23.17	–
293.15 K, x1 = 0.6003	759.9	–	0.896
293.15 K, x1 = 0.6994	770.07	–	0.981
293.15 K, x1 = 0.6995	–	23.97	–
293.15 K, x1 = 0.7998	–	24.87	–
293.15 K, x1 = 0.8	780.14	–	1.078
293.15 K, x1 = 0.9	–	25.85	–
293.15 K, x1 = 0.9001	789.89	–	1.184
293.15 K, x1 = 1	799.37	26.81	1.304
298.15 K, x1 = 0.0999	700.02	–	0.537
298.15 K, x1 = 0.1008	–	19	–
298.15 K, x1 = 0.2	–	19.59	–
298.15 K, x1 = 0.2002	711.89	–	0.588
298.15 K, x1 = 0.3001	723.39	20.24	0.64
298.15 K, x1 = 0.3996	734.52	–	0.698
298.15 K, x1 = 0.3999	–	20.9	–
298.15 K, x1 = 0.5004	–	21.56	–
298.15 K, x1 = 0.5005	745.49	–	0.763
298.15 K, x1 = 0.5999	–	22.29	–
298.15 K, x1 = 0.6003	756.05	–	0.835
298.15 K, x1 = 0.6994	766.27	–	0.912
298.15 K, x1 = 0.6995	–	23.1	–
298.15 K, x1 = 0.7998	–	23.95	–
298.15 K, x1 = 0.8	776.35	–	0.998
298.15 K, x1 = 0.9	–	24.93	–
298.15 K, x1 = 0.9001	786.12	–	1.093
298.15 K, x1 = 1	795.63	25.87	1.199
303.15 K, x1 = 0.0999	695.93	18.58	0.51
303.15 K, x1 = 0.2002	707.85	19.11	0.556
303.15 K, x1 = 0.3001	719.4	19.81	0.605
303.15 K, x1 = 0.3996	730.57	20.49	0.657
303.15 K, x1 = 0.5005	741.58	21.39	0.717
303.15 K, x1 = 0.6003	752.17	21.79	0.781
303.15 K, x1 = 0.6994	762.43	22.68	0.851
303.15 K, x1 = 0.8	772.54	23.51	0.929
303.15 K, x1 = 0.9001	782.34	24.53	1.014
303.15 K, x1 = 1	791.88	25.49	1.109
308.15 K, x1 = 0.0999	691.83	–	0.486
308.15 K, x1 = 0.1008	–	18.07	–
308.15 K, x1 = 0.2	–	18.59	–
308.15 K, x1 = 0.2002	703.8	–	0.528
308.15 K, x1 = 0.3001	715.4	19.17	0.573
308.15 K, x1 = 0.3996	726.61	–	0.621
308.15 K, x1 = 0.3999	–	19.76	–
308.15 K, x1 = 0.5004	–	20.41	–
308.15 K, x1 = 0.5005	737.66	–	0.675
308.15 K, x1 = 0.5999	–	21.12	–
308.15 K, x1 = 0.6003	748.29	–	0.734
308.15 K, x1 = 0.6994	758.58	–	0.797
308.15 K, x1 = 0.6995	–	21.94	–
308.15 K, x1 = 0.7998	–	22.79	–
308.15 K, x1 = 0.8	768.72	–	0.868
308.15 K, x1 = 0.9	–	23.73	–
308.15 K, x1 = 0.9001	778.55	–	0.945
308.15 K, x1 = 1	788.12	24.73	1.031
313.15 K, x1 = 0.0999	687.7	–	0.464
313.15 K, x1 = 0.2002	699.73	–	0.502
313.15 K, x1 = 0.3001	711.37	–	0.544
313.15 K, x1 = 0.3996	722.64	–	0.588
313.15 K, x1 = 0.5005	733.72	–	0.638
313.15 K, x1 = 0.6003	744.39	–	0.691
313.15 K, x1 = 0.6994	754.72	–	0.749
313.15 K, x1 = 0.8	764.89	–	0.814
313.15 K, x1 = 0.9001	774.76	–	0.883
313.15 K, x1 = 1	784.35	–	0.961
318.15 K, x1 = 0.0999	683.64	–	0.446
318.15 K, x1 = 0.2002	695.56	–	0.482
318.15 K, x1 = 0.3001	707.24	–	0.519
318.15 K, x1 = 0.3996	718.6	–	0.561
318.15 K, x1 = 0.5005	729.73	–	0.607
318.15 K, x1 = 0.6003	740.43	–	0.654
318.15 K, x1 = 0.6994	750.82	–	0.708
318.15 K, x1 = 0.8	760.98	–	0.765
318.15 K, x1 = 0.9001	770.84	–	0.829
318.15 K, x1 = 1	780.49	–	0.9
323.15 K, x1 = 0.0999	679.45	–	0.427
323.15 K, x1 = 0.2002	691.42	–	0.46
323.15 K, x1 = 0.3001	703.16	–	0.496
323.15 K, x1 = 0.3996	714.56	–	0.534
323.15 K, x1 = 0.5005	725.73	–	0.575
323.15 K, x1 = 0.6003	736.49	–	0.62
323.15 K, x1 = 0.6994	746.95	–	0.668
323.15 K, x1 = 0.8	757.16	–	0.721
323.15 K, x1 = 0.9001	767.06	–	0.779
323.15 K, x1 = 1	776.7	–	0.844
333.15 K, x1 = 0.0999	670.99	–	0.396
333.15 K, x1 = 0.2002	683.12	–	0.424
333.15 K, x1 = 0.3001	694.98	–	0.454
333.15 K, x1 = 0.3996	706.46	–	0.487
333.15 K, x1 = 0.5005	717.7	–	0.522
333.15 K, x1 = 0.6003	728.53	–	0.56
333.15 K, x1 = 0.6994	739.06	–	0.601
333.15 K, x1 = 0.8	749.37	–	0.646
333.15 K, x1 = 0.9001	759.38	–	0.695
333.15 K, x1 = 1	769.09	–	0.749
343.15 K, x1 = 0.0999	662.4	–	0.369
343.15 K, x1 = 0.2002	674.66	–	0.394
343.15 K, x1 = 0.3001	686.64	–	0.42
343.15 K, x1 = 0.3996	698.25	–	0.448
343.15 K, x1 = 0.5005	709.63	–	0.48
343.15 K, x1 = 0.6003	720.57	–	0.51
343.15 K, x1 = 0.6994	731.21	–	0.545
343.15 K, x1 = 0.8	741.57	–	0.584
343.15 K, x1 = 0.9001	751.62	–	0.626
343.15 K, x1 = 1	761.43	–	0.671
